Measured values reported in ChEMBL document CHEMBL5724806, “Unraveling interindividual differences and functional consequences of gut microbial metabolism of immunosuppressants” (2024).

Legend:
Type in all cases: ADME
[1] = (§1) The drug is tested on Gemella morbillorum strain: DSM20572 for biotransformation under microaerobic condition. The drug concentrations were measured over 6 timepoints collected between 0 and 12 hours of incubation by liquid-chromatography-coupled mass spectrometry (LC–MS); set-up: dose 5 uM, timepoint 0, 1.5, 3, 6, 9, 12 hours; details: 5 µM
[2] = (§2) The drug is tested on Gemella morbillorum strain: DSM20572 for biotransformation under anaerobic condition. The drug concentrations were measured over 6 timepoints collected between 0 and 12 hours of incubation by liquid-chromatography-coupled mass spectrometry (LC–MS); set-up: dose 5 uM, timepoint 0, 1.5, 3, 6, 9, 12 hours; details: 5 µM
[3] = The drug is tested on Clostridium bolteae strain: DSM15670 for biotransformation under anaerobic condition. The drug concentrations were measured over 6 timepoints collected between 0 and 12 hours of incubation by liquid-chromatography-coupled mass spectrometry (LC–MS); set-up: dose 5 uM, timepoint 0, 1.5, 3, 6, 9, 12 hours; details: enterocloster bolteae, 5 µM
[4] = as §1, with “the gut metagenome community of T-02 with ENA study accession number: PRJEB31790” for “Gemella morbillorum strain: DSM20572”, “7” for “6”; set-up: dose 5 uM, timepoint 0, 0.75, 1.5, 3, 6, 9, 12 hours; details: 5 µM
[5] = as §2, with “the gut metagenome community of T-02 with ENA study accession number: PRJEB31790” for “Gemella morbillorum strain: DSM20572”, “7” for “6”; set-up: dose 5 uM, timepoint 0, 0.75, 1.5, 3, 6, 9, 12 hours; details: 5 µM
[6] = The drug is tested on Gemella haemolysans strain: DSM107751 for biotransformation under anaerobic condition. The drug concentrations were measured over 6 timepoints collected between 0 and 12 hours of incubation by liquid-chromatography-coupled mass spectrometry (LC–MS); set-up: dose 5 uM, timepoint 0, 1.5, 3, 6, 9, 12 hours; details: 5 µM
[7] = The drug is tested on Parabacteroides merdae strain: DSM19495 for biotransformation under anaerobic condition. The drug concentrations were measured over 6 timepoints collected between 0 and 12 hours of incubation by liquid-chromatography-coupled mass spectrometry (LC–MS); set-up: dose 5 uM, timepoint 0, 1.5, 3, 6, 9, 12 hours; details: 5 µM
[8] = as §1, with “the gut metagenome community of A-08 with ENA study accession number: PRJEB31790” for “Gemella morbillorum strain: DSM20572”, “7” for “6”; set-up: dose 5 uM, timepoint 0, 0.75, 1.5, 3, 6, 9, 12 hours; details: 5 µM
[9] = The drug is tested on Eubacterium hallii strain: DSM3353 for biotransformation under anaerobic condition. The drug concentrations were measured over 6 timepoints collected between 0 and 12 hours of incubation by liquid-chromatography-coupled mass spectrometry (LC–MS); set-up: dose 5 uM, timepoint 0, 1.5, 3, 6, 9, 12 hours; details: anaerobutyricum hallii, 5 µM
[10] = as §2, with “the gut metagenome community of A-10 with ENA study accession number: PRJEB31790” for “Gemella morbillorum strain: DSM20572”, “7” for “6”; set-up: dose 5 uM, timepoint 0, 0.75, 1.5, 3, 6, 9, 12 hours; details: 5 µM
[11] = as §1, with “the gut metagenome community of P-04 with ENA study accession number: PRJEB31790” for “Gemella morbillorum strain: DSM20572”, “7” for “6”; set-up: dose 5 uM, timepoint 0, 0.75, 1.5, 3, 6, 9, 12 hours; details: 5 µM
[12] = The drug is tested on Roseburia intestinalis strain: DSM14610 for biotransformation under anaerobic condition. The drug concentrations were measured over 6 timepoints collected between 0 and 12 hours of incubation by liquid-chromatography-coupled mass spectrometry (LC–MS); set-up: dose 5 uM, timepoint 0, 1.5, 3, 6, 9, 12 hours; details: 5 µM
[13] = The drug is tested on Bacteroides xylanisolvens strain: HM 722 for biotransformation under anaerobic condition. The drug concentrations were measured over 6 timepoints collected between 0 and 12 hours of incubation by liquid-chromatography-coupled mass spectrometry (LC–MS); set-up: dose 5 uM, timepoint 0, 1.5, 3, 6, 9, 12 hours; details: 5 µM
[14] = The drug is tested on Lactobacillus gasseri strain: DSM20243 for biotransformation under anaerobic condition. The drug concentrations were measured over 6 timepoints collected between 0 and 12 hours of incubation by liquid-chromatography-coupled mass spectrometry (LC–MS); set-up: dose 5 uM, timepoint 0, 1.5, 3, 6, 9, 12 hours; details: 5 µM
[15] = The drug is tested on Streptococcus mitis strain: DSM12643 for biotransformation under anaerobic condition. The drug concentrations were measured over 6 timepoints collected between 0 and 12 hours of incubation by liquid-chromatography-coupled mass spectrometry (LC–MS); set-up: dose 5 uM, timepoint 0, 1.5, 3, 6, 9, 12 hours; details: 5 µM
[16] = as §2, with “the gut metagenome community of P-02 with ENA study accession number: PRJEB31790” for “Gemella morbillorum strain: DSM20572”, “7” for “6”; set-up: dose 5 uM, timepoint 0, 0.75, 1.5, 3, 6, 9, 12 hours; details: 5 µM
[17] = as §2, with “the gut metagenome community of A-06 with ENA study accession number: PRJEB31790” for “Gemella morbillorum strain: DSM20572”, “7” for “6”; set-up: dose 5 uM, timepoint 0, 0.75, 1.5, 3, 6, 9, 12 hours; details: 5 µM
[18] = The drug is tested on Akkermansia muciniphila strain: DSM22959 for biotransformation under anaerobic condition. The drug concentrations were measured over 6 timepoints collected between 0 and 12 hours of incubation by liquid-chromatography-coupled mass spectrometry (LC–MS); set-up: dose 5 uM, timepoint 0, 1.5, 3, 6, 9, 12 hours; details: 5 µM
[19] = The drug is tested on Parabacteroides distasonis strain: DSM20701 for biotransformation under anaerobic condition. The drug concentrations were measured over 6 timepoints collected between 0 and 12 hours of incubation by liquid-chromatography-coupled mass spectrometry (LC–MS); set-up: dose 5 uM, timepoint 0, 1.5, 3, 6, 9, 12 hours; details: 5 µM
[20] = The drug is tested on Streptococcus anginosus strain: DSM20563 for biotransformation under anaerobic condition. The drug concentrations were measured over 6 timepoints collected between 0 and 12 hours of incubation by liquid-chromatography-coupled mass spectrometry (LC–MS); set-up: dose 5 uM, timepoint 0, 1.5, 3, 6, 9, 12 hours; details: 5 µM
[21] = as §2, with “the gut metagenome community of P-03 with ENA study accession number: PRJEB31790” for “Gemella morbillorum strain: DSM20572”, “7” for “6”; set-up: dose 5 uM, timepoint 0, 0.75, 1.5, 3, 6, 9, 12 hours; details: 5 µM
[22] = The drug is tested on Clostridium ramosum strain: DSM1402 for biotransformation under anaerobic condition. The drug concentrations were measured over 6 timepoints collected between 0 and 12 hours of incubation by liquid-chromatography-coupled mass spectrometry (LC–MS); set-up: dose 5 uM, timepoint 0, 1.5, 3, 6, 9, 12 hours; details: thomasclavelia ramosa, 5 µM
[23] = The drug is tested on Ruminococcus gnavus strain: ATCC29149 for biotransformation under anaerobic condition. The drug concentrations were measured over 6 timepoints collected between 0 and 12 hours of incubation by liquid-chromatography-coupled mass spectrometry (LC–MS); set-up: dose 5 uM, timepoint 0, 1.5, 3, 6, 9, 12 hours; details: mediterraneibacter gnavus, 5 µM
[24] = The drug is tested on Dorea formicigenerans strain: DSM3992 for biotransformation under anaerobic condition. The drug concentrations were measured over 6 timepoints collected between 0 and 12 hours of incubation by liquid-chromatography-coupled mass spectrometry (LC–MS); set-up: dose 5 uM, timepoint 0, 1.5, 3, 6, 9, 12 hours; details: 5 µM
[25] = The drug is tested on Streptococcus sanguinis strain: DSM20567 for biotransformation under anaerobic condition. The drug concentrations were measured over 6 timepoints collected between 0 and 12 hours of incubation by liquid-chromatography-coupled mass spectrometry (LC–MS); set-up: dose 5 uM, timepoint 0, 1.5, 3, 6, 9, 12 hours; details: 5 µM
[26] = as §1, with “the gut metagenome community of T-01 with ENA study accession number: PRJEB31790” for “Gemella morbillorum strain: DSM20572”, “7” for “6”; set-up: dose 5 uM, timepoint 0, 0.75, 1.5, 3, 6, 9, 12 hours; details: 5 µM
[27] = as §1, with “the gut metagenome community of A-09 with ENA study accession number: PRJEB31790” for “Gemella morbillorum strain: DSM20572”, “7” for “6”; set-up: dose 5 uM, timepoint 0, 0.75, 1.5, 3, 6, 9, 12 hours; details: 5 µM
[28] = The drug is tested on Bifidobacterium longum strain: DSM20088 for biotransformation under microaerobic condition. The drug concentrations were measured over 6 timepoints collected between 0 and 12 hours of incubation by liquid-chromatography-coupled mass spectrometry (LC–MS); set-up: dose 5 uM, timepoint 0, 1.5, 3, 6, 9, 12 hours; details: 5 µM
[29] = The drug is tested on Faecalibacterium prausnitzii strain: DSM17677 for biotransformation under anaerobic condition. The drug concentrations were measured over 6 timepoints collected between 0 and 12 hours of incubation by liquid-chromatography-coupled mass spectrometry (LC–MS); set-up: dose 5 uM, timepoint 0, 1.5, 3, 6, 9, 12 hours; details: faecalibacterium duncaniae, 5 µM
[30] = as §2, with “the gut metagenome community of A-04 with ENA study accession number: PRJEB31790” for “Gemella morbillorum strain: DSM20572”, “7” for “6”; set-up: dose 5 uM, timepoint 0, 0.75, 1.5, 3, 6, 9, 12 hours; details: 5 µM

| SMILES | Bacterial Biotransformation [1] | Bacterial Biotransformation [2] | Bacterial Biotransformation [4] | Bacterial Biotransformation [5] | Bacterial Biotransformation [6] | Bacterial Biotransformation [7] | Bacterial Biotransformation [8] | Bacterial Biotransformation [9] | Bacterial Biotransformation [10] | Bacterial Biotransformation [11] | Bacterial Biotransformation [12] | Bacterial Biotransformation [13] | Bacterial Biotransformation [14] | Bacterial Biotransformation [15] | Bacterial Biotransformation [16] | Bacterial Biotransformation [17] | Bacterial Biotransformation [18] | Bacterial Biotransformation [19] | Bacterial Biotransformation [20] | Bacterial Biotransformation [21] | also measured |
| --- | --- | --- | --- | --- | --- | --- | --- | --- | --- | --- | --- | --- | --- | --- | --- | --- | --- | --- | --- | --- | --- |
| CCOc1nc2cccc(C(=O)O)c2n1Cc1ccc(-c2ccccc2-c2nnn[nH]2)cc1 | Compound NOT metabolized | Compound NOT metabolized | Compound NOT metabolized | Compound NOT metabolized | Compound NOT metabolized | Compound NOT metabolized | Compound NOT metabolized | Compound NOT metabolized | Compound NOT metabolized | Compound NOT metabolized | Compound NOT metabolized | Compound NOT metabolized | Compound NOT metabolized | Compound NOT metabolized | Compound NOT metabolized | Compound NOT metabolized | Compound NOT metabolized | Compound NOT metabolized | Compound NOT metabolized | Compound NOT metabolized | Bacterial Biotransformation [3]: Compound NOT metabolized; Bacterial Biotransformation [22]: Compound NOT metabolized; Bacterial Biotransformation [23]: Compound NOT metabolized; Bacterial Biotransformation [24]: Compound NOT metabolized; Bacterial Biotransformation [25]: Compound NOT metabolized; Bacterial Biotransformation [26]: Compound NOT metabolized; Bacterial Biotransformation [27]: Compound NOT metabolized; Bacterial Biotransformation [28]: Compound NOT metabolized; Bacterial Biotransformation [29]: Compound NOT metabolized; Bacterial Biotransformation [30]: Compound NOT metabolized |
| C[C@@H](NCCCc1cccc(C(F)(F)F)c1)c1cccc2ccccc12 | Compound NOT metabolized | Compound NOT metabolized | Compound NOT metabolized | Compound NOT metabolized | Compound NOT metabolized | Compound NOT metabolized | Compound NOT metabolized | Compound NOT metabolized | Compound NOT metabolized | Compound NOT metabolized | Compound NOT metabolized | Compound NOT metabolized | Compound NOT metabolized | Compound NOT metabolized | Compound NOT metabolized | Compound NOT metabolized | Compound NOT metabolized | Compound NOT metabolized | Compound NOT metabolized | Compound NOT metabolized | Bacterial Biotransformation [3]: Compound NOT metabolized; Bacterial Biotransformation [22]: Compound NOT metabolized; Bacterial Biotransformation [23]: Compound NOT metabolized; Bacterial Biotransformation [24]: Compound NOT metabolized; Bacterial Biotransformation [25]: Compound NOT metabolized; Bacterial Biotransformation [26]: Compound metabolized; Bacterial Biotransformation [27]: Compound NOT metabolized; Bacterial Biotransformation [28]: Compound NOT metabolized; Bacterial Biotransformation [29]: Compound NOT metabolized; Bacterial Biotransformation [30]: Compound NOT metabolized |
| CCOC(=O)C1=C(COCCN)NC(C)=C(C(=O)OC)C1c1ccccc1Cl (stereo not drawn) [AMLODIPINE] | Compound NOT metabolized | Compound NOT metabolized | Compound NOT metabolized | Compound NOT metabolized | Compound NOT metabolized | Compound NOT metabolized | Compound NOT metabolized | Compound NOT metabolized | Compound NOT metabolized | Compound NOT metabolized | Compound NOT metabolized | Compound NOT metabolized | Compound NOT metabolized | Compound NOT metabolized | Compound NOT metabolized | Compound NOT metabolized | Compound NOT metabolized | Compound NOT metabolized | Compound NOT metabolized | Compound NOT metabolized | Bacterial Biotransformation [23]: Compound NOT metabolized; Bacterial Biotransformation [24]: Compound NOT metabolized; Bacterial Biotransformation [25]: Compound NOT metabolized; Bacterial Biotransformation [26]: Compound NOT metabolized; Bacterial Biotransformation [27]: Compound NOT metabolized; Bacterial Biotransformation [28]: Compound NOT metabolized; Bacterial Biotransformation [29]: Compound NOT metabolized; Bacterial Biotransformation [30]: Compound NOT metabolized |
